# Experimental data as given in patent publication US20160151458A1, “Use Of Unacylated Ghrelin, Fragments And Analogs Thereof As Antioxidant” (ALIZE PHARMA SAS, priority 2013, published 2016).
# Tests used:
# primary SCs = assay: In-vitro ischemia of primary SCs from normo-perfused muscles; assay type: cell-based, C57BL/6J mice; conditions: 1 μmol/L, 1% O2 24 h
# Method: (§1) SCs were isolated from gastrocnemius muscles of C57BL/6J wild type mice subjected to ischemia or C57BL/6J mice lacking the GHSR1a and ghrelin genes (10 mice, kind gift of Professor M. Tschöp)^39. To obtain SCs, muscle samples were subjected to enzymatic digestion as described^45. In selected experiments, SCs were recovered from normo-perfused muscles and subjected to in-vitro ischemia in presence of saline, AG (1 μmol/L) or UAG (1 μmol/L). In-vitro ischemia was induced by incubating cells in DMEM+2% FCS at 5% CO2/95% N2 humidified atmosphere, yielding 1% O2 concentrations for 24 h^18. The in-vitro ischemia was also performed in the presence of SB202190 (1 μmol/L).
# (§2) SC cell-cycle progression was evaluated by evaluating the percentage of PCNA-positive cells or by FACS analysis as previously described^46. The percentage of cells in each cell cycle phase was determined by ModFit LT software (Verity Software House. Inc, topsham, ME, USA). Celss proliferation was also assayed by evaluating the percentage of PCNA-positive cells by FACS analysis.
# (§3) Cells were lysed and protein detection was obtained as previously described^47. Cells were lysed (50 mmol/L Tris HCl [pH 8.3], 1% Triton X-100, 10 mmol/L PMSF, 100 U/ml aprotinin, 10 μmol/L leupeptin) and protein concentrations were obtained as previously described^47. […] Densitometric analysis was used to calculate the differences in the fold induction of protein levels and normalized to tubulin, a actin or p38MAPK content. Values are reported as relative amount
# (§4) Intracellular ROS production was evaluated using DCF-DA (5-(and-6)-carboxy-2′,7′-dichlorofluorescein diacetate, […] final concentration) (Molecular Probe, Invitrogen) assay as previously described^23. The formation of TBARS was determined in muscles using the OXI-TEK kit (ZeptoMetrix Corp.) and a luminescence spectrometer (Bio-Rad Laboratories, Hercules, Calif.) with excitation set at 530 nm, emission at 550 nm to measure in-vivo oxidative stress levels^33.
# (§5) Total RNA was isolated using TRIzol reagent (Invitrogen) from SCs recovered from muscles of treated animals or from SCs subjected to in-vitro ischemia. miR-221/222 expression was evaluated by qRT-PCR as previously described^48. Loss-of-function experiments were performed in SCs transfected for 48 h with anti-miRNA negative control, anti-miR-221/222 antagonists (Applied Biosystem, Foxter Cyto CA, USA), according to the manufacturer's instructions^48.
# [1] = test system: SCs transfected with anti-miR-221/222; assay: Loss-of-function: SCs transfected with anti-miR-221/222 antago-miRs; assay type: cell-based, mice; conditions: anti-miR-221/222 transfected SCs; data not shown
# Method: as §5
# GHSR-1a = GHSR-1a (Homo sapiens, UniProt Q92847); conditions: at physiological concentrations; cited from earlier work
# Chain of GHSR-1a (Q92847 whole entry): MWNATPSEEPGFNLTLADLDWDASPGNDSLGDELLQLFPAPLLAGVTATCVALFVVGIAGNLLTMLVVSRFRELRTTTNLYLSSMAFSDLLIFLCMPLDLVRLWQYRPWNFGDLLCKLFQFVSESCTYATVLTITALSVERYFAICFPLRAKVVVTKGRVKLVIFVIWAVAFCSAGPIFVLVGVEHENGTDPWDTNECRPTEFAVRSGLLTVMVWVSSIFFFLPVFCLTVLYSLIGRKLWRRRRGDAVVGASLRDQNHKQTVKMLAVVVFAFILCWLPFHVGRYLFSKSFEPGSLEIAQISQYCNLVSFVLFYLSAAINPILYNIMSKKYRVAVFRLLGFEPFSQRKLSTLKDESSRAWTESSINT
# [2] = test system: satellite cells (SCs) from ischemic muscles; assay: SCs recovered from ischemic muscles of treated mice (ex vivo analysis); assay type: in vivo, C57BL/6J mice
# Method: (§6) Male C57BL/6J mice (Charles River Lab., Wilmington, Mass., USA) were anesthetized and unilateral hind limb ischemia was induced as described^42. The normo-perfused contralateral limb of each mouse was used as an internal control. After hind-limb ischemia, animals (18 mice per group) were treated by intra-peritoneal injection daily from 0 to day 21 with either saline, AG (100 μg/kg) or UAG (100 μg/kg). In selected experiments, mice received intramuscular injections of pre-miR oligonucleotides (5 mice/group). To induce toxic damage, 100 μl of 1% barium chloride (BaCl2, Sigma Aldrich) was injected unilaterally into the hind limb (9 mice). Mice were treated according to European Guidelines and policies as approved by the University of Turin Ethical Committee.
# as §1, §3, §4, §5
# [3] = test system: SCs transfected with SOD-2 siRNA; assay: In-vitro ischemia of SCs silenced for SOD-2 by siRNA; assay type: cell-based, C57BL/6J mice
# Method: as §1, §2, §3, §4, §5
# To obtain SOD-2 inactivation, SCs were transiently transfected with siRNA for SOD-2 or with duplex siRNAs (Qiagen, Valencia, Calif., USA) as previously described^44. Transfection was performed according to the manufacturer's instructions. Whole cell extracts were processed 48 h after transfection. Cell viability was evaluated at the end of each experiment.
# [4] = test system: BaCl2-injected gastrocnemius muscles of C57BL/6J mice; assay: Toxic muscle damage induced by 1% barium chloride (BaCl2); assay type: in vivo; conditions: 1% BaCl2; FIG. 3E
# Method: as §6
# (§7) Gastrocnemius muscle sections from ischemic or normo-perfused limbs were stained with hematoxylin and eosin for histological analysis. The proportion of fibers with central nuclei (regenerating fibers) was measured by MetaMorph software (Life Sciences Research Imaging Systems) in the injured area and the cross-sectional areas of the fibers in the injured and non-injured areas. For IF analysis, muscle sections were processed as described previously^44. The number of cells expressing the indicated markers or CD31 positive vessels was evaluated as previously described^34.
# healthy volunteers = conditions: administered concomitantly with ghrelin; cited from earlier work
# [5] = test system: C2C12 mouse muscular cell line; assay: ROS production (DCF-DA) in C2C12 cells under oxidative stress; assay type: cell-based; conditions: 1 μmol/L; stress by hypoxia (1% O2), AGEs, hyperglycemia (25 mM) or H2O2; FIG. 8
# Method: Kinetic analysis of ROS production was evaluated by using DCF-DA (5-(and-6)-carboxy-2′,7′-dichlorofluorescein diacetate, 0.5 μmol/L final concentration) (Molecular Probe, Invitrogen) assay. C2C12 cells were cultured with 400 μg/ml Advanced Glycated End-product (AGE) or 25 mM glucose (high glucose HG) for 48 h, H2O2 (100 μM) for 2 h. In parallel experiments C2C12 cells were subjected to hypoxia (DMEM+2% FCS in a 5% CO2-95% N2 humidified atmosphere, yielding to 1% O2 concentrations for 24 h). UAG (1 μmol/L) AZP 531 (1 μmol/L) or AZP-502 (1 μmol/L) was added where indicated.
# SCs from double KO mice = assay: In-vitro ischemia of SCs from double KO mice lacking the GHSR1a and ghrelin genes; assay type: cell-based, C57BL/6J mice lacking the GHSR1a and ghrelin genes
# Method: as §1, §2, §3, §4
# [6] = test system: unilateral hind limb ischemia in C57BL/6J mice (ischemic gastrocnemius muscle); assay: Murine hind-limb ischemia model; assay type: in vivo; conditions: for Pax-7/MyoD+ cells in ischemic muscles: FIG. 2A
# Method: as §6
# Semiquantitative estimation (by repeated measures analyzed with ANOVA and Newman-Keuls Multiple Comparison test) of foot damage was performed serially using the following classification: 3=dragging of foot (foot necrosis), 2=no dragging but no plantar flexion (foot damage), 1=plantar flexion but no toe flexion (toe damage), and 0=flexing the toes to resist gentle traction on the tail (no damage)^43.
# as §7, §4
substance,measurement,setting,value
Gly-Ser-Ser-Phe-Leu-Ser-Pro-Glu-His-Gln-Arg-Val-Gln-Gln-Arg-Lys-Glu-Ser-Lys-Lys-Pro-Pro-Ala-Lys-Leu-Gln-Pro-Arg (GSSFLSPEHQRVQQRKESKKPPAKLQPR; listed as Homo sapiens) [UAG],PCNA expression,"primary SCs; FACS, FIG. 4D",increased PCNA expression
same,number of cells in S phase,"primary SCs; FACS, FIG. 4E",increased
same,pp38/MAPK level,primary SCs; FIG. 4C,increased levels of pp38/MAPK
same,ROS production (DCF-DA),primary SCs; FIG. 4F,ROS production was decreased
same,SOD-2 expression,primary SCs; FIG. 4G,SOD-2 expression increased
same,"expression of Pax-7, MyoD and myogenin","primary SCs; FIGS. 4A, 4B",only UAG challenge induced expression
same,"cell-cycle entry and expression of SOD-2, Pax-7, MyoD, myogenin",[1],no longer had any effect
same,p-p38/MAPK levels,[1],p-p38/MAPK levels were reduced
same,binding to GHSR-1a,GHSR-1a,fails to bind
same,expression of miR-221 and miR-222 in SCs (qRT-PCR),"[2]; SCs from muscles of treated mice vs controls, FIG. 6A",significantly increased
same,ROS production in SCs (DCF-DA),"[2]; SCs from treated mice, FIG. 3B",ROS production was lower
same,SOD-2 protein expression in SCs,"[2]; SCs from treated mice, Western blot, FIG. 3C",SOD-2 protein expression higher
same,phospho(p)-p38/MAPK protein level in SCs,"[2]; Western blot, FIG. 2C",found to be higher
same,number of isolated Pax-7/MyoD/Myf5+ SCs,"[2]; ex vivo, FIGS. 2B-2D",significantly increased number of Pax-7/MyoD/Myf5+SCs
same,UAG-induced miR-221/222 expression,"[3]; SOD-2 knock-down, FIG. 7B",SOD-2 knock-down prevents UAG-induced miR-221/222 expression
same,protection against ROS generation,"[3]; SOD-2 silenced, FIG. 5B",did not protect SCs against ROS generation
same,cell-cycle progression,"[3]; SOD-2 silenced, FIG. 5C",the cells did not undergo cell-cycle progression
same,p38/MAPK phosphorylation,"[3]; SOD-2 silenced, FIG. 5D",did not induce p38/MAPK phosphorylation
same,regeneration of skeletal muscle after ROS-independent toxic damage,[4],regeneration of skeletal muscle was no longer observed
same,effect on the hyperglycemic effects of ghrelin,healthy volunteers,prevent the hyperglycemic effects of ghrelin
same,protection against oxidative stress (ROS production),[5],have a protective effect on C2C12 cells against oxidative stress
same,SC cell-cycle progression,SCs from double KO mice; FIG. 5G,only UAG promoted SC cell-cycle progression
same,SOD-2 expression,SCs from double KO mice; FIG. 5I,induced SOD-2 expression
same,protection from ROS generation,SCs from double KO mice; FIG. 5J,protected SCs from ROS generation
same,"p-p38/MAPK, Pax-7, MyoD, Myf5 and myogenin expression","SCs from double KO mice; FIGS. 5H, 5I","induced p-p38/MAPK, Pax-7, MyoD, Myf5 and myogenin expression"
same,protection against ischemia-induced damage (overall in vivo effect),[6]; 100 μg/kg i.p. daily,protect against ischemia-induced damage
same,foot damage (functional score),"[6]; 100 μg/kg i.p. daily from day 0, FIG. 1A",damage was significantly higher in saline- and AG-treated groups than in the UAG-treated group
same,"capillary density, ischemic vs contralateral control muscles of the same animals","[6]; 100 μg/kg i.p. daily, FIG. 1B",no such differences were observed
same,number of functional vessels in ischemic muscles,"[6]; 100 μg/kg i.p. daily, FIG. 1B",larger number of functional vessels
same,CD68-positive inflammatory cells,"[6]; 100 μg/kg i.p. daily, FIG. 1E",reduced number of CD68-positive inflammatory cells
same,regenerating myofibers in gastrocnemius muscles,"[6]; 100 μg/kg i.p. daily, FIGS. 1C, 1D",increased number of regenerating myofibers
same,myogenin-positive cells in ischemic muscles,"[6]; FIGS. 2E, 2F",increased number of myogenin-positive cells
same,Pax-7/MyoD+ cells in ischemic muscles,[6]; day 7,increased number of Pax-7/MyoD+ cells
same,Pax-7/MyoD+ cells in ischemic muscles,[6]; day 21,scattered Pax-7/MyoD+ cells were still present
same,SOD-2/Pax-7+ cells in ischemic muscle,"[6]; double immunostaining, day 7, FIG. 3D",increased number of SOD-2/Pax-7+ cells
